In patent publication US12551482B2, “Aurora kinase inhibitors” (The Regents of the University of California, priority 2013, dated 2026):
Like-named read-outs stand apart in the source and are kept apart here.

Tests used:
[1] = test system: K5; assay: Cancer cell line profiling, Genomics of Drug Sensitivity Project; conditions: read-out: CD532 EC50 (uM)
[2] = test system: tumor-derived cell lines; assay: Screen of panel of tumor-derived, genetically characterized cell lines; type: cell-based
[3] = test system: LOXIMVI; assay: Cancer cell line profiling, Genomics of Drug Sensitivity Project
[4] = test system: HSC-3; assay: as above; conditions: Homo sapiens, HSC-3, read-out: CD532 EC50 (uM)
[5] = test system: MKN28; assay: as above; conditions: Homo sapiens, MKN-28, read-out: CD532 EC50 (uM)
[6] = test system: SK-MEL-1; assay: as above; conditions: Homo sapiens, SK-MEL-1, read-out: CD532 EC50 (uM)
[7] = test system: WM-115; assay: as above; conditions: Homo sapiens, WM-115, read-out: CD532 EC50 (uM)
[8] = test system: BFTC-909; assay: as above; conditions: Homo sapiens, BFTC-909, read-out: CD532 EC50 (uM)
[9] = test system: MYCN amplified neuroblastoma cells; assay: Cell cycle by flow cytometry; type: cell-based; conditions: 4 or 6 hrs of treatment
Method: Neuroblastoma cells were treated for the indicated time, trypsinized, washed, stained with Dylight 800 at 0.3 μg/mL (Pierce, 46421), fixed with 1.5% PFA, and permeabilized with 100% methanol. Cells were then stained with antibodies against p-MPM2 (Millipore, 16-155), p-pan-Aurora (Cell Signaling, 2914), MYCN (Thermo, PA5-17403), rabbit IgG (Invitrogen, A10542), or mouse IgG (BioLegend, 405307). Cells were stained with DAPI at 0.3 μg/mL (Invitrogen, D21490) and analyzed on the BD LSR II flow cytometer. For cell cycle analysis, cells were stimulated with EdU for 2 hours prior to harvest, then probed using the Click-iT EdU Flow Cytometry Assay Kit (Invitrogen, C10424). Cells were stained with propidium iodide (BD, 556547) and analyzed on the BD FACSCalibur flow cytometer. Data was gated using Cytobank. For viability studies, neuroblastoma cells were plated in 96-well plates at a density of 1,000 cells/well for SHEP or 4,000 cells/well for Kelly or SK—N-BE2 cells, then incubated with indicated concentrations of drug for 72 hours at 37° C. Plates were frozen at −80° C. to induce cell lysis. CyQUANT reagent mixture (Invitrogen, C7026) was added to thawed plates, then fluorescence was measured. Alternatively, resazurin (Sigma-Aldrich, R7017) was added directly to wells following drug treatment then incubated for 4 hours at 37° C. prior to measuring fluorescence. Data was analyzed using GraphPad Prism software.

[10] = test system: LS-123; assay: Cancer cell line profiling, Genomics of Drug Sensitivity Project; conditions: Homo sapiens, LS-123, read-out: CD532 EC50 (uM)
[11] = test system: JHH-2; assay: as above; conditions: JHH-2, read-out: CD532 EC50 (uM)
[12] = test system: MMAC-SF; assay: as above; conditions: read-out: CD532 EC50 (uM)
[13] = test system: SCH; assay: as above; conditions: read-out: CD532 EC50 (uM)
[14] = test system: CP50-MEL-B; assay: as above; conditions: read-out: CD532 EC50 (uM)
[15] = test system: JHH-6; assay: as above; conditions: read-out: CD532 EC50 (uM)
[16] = test system: SNU-423; assay: as above; conditions: Homo sapiens, SNU-423, read-out: CD532 EC50 (uM)
[17] = test system: ML-1; assay: as above; conditions: ML1, read-out: CD532 EC50 (uM)
[18] = test system: B-CPAP; assay: as above; conditions: Homo sapiens, BCPAP, read-out: CD532 EC50 (uM)
[19] = test system: SAT; assay: as above; conditions: read-out: CD532 EC50 (uM)
[20] = test system: SNU-1; assay: as above; conditions: Homo sapiens, SNU1, read-out: CD532 EC50 (uM)
[21] = test system: KP-N-YS; assay: as above; conditions: read-out: CD532 EC50 (uM)
[22] = test system: BB30-HNC; assay: as above; conditions: read-out: CD532 EC50 (uM)
[23] = test system: SNU-81; assay: as above; conditions: read-out: CD532 EC50 (uM)
[24] = test system: c-MYC; assay: c-MYC protein by immunoblot in c-MYC expressing cancer cell lines; type: cell-based
[25] = test system: HO-1-u-1; assay: Cancer cell line profiling, Genomics of Drug Sensitivity Project; conditions: read-out: CD532 EC50 (uM)
[26] = test system: Ca9-22; assay: as above; conditions: Homo sapiens, Ca9-22, read-out: CD532 EC50 (uM)
[27] = target: T1, c-MYC/Aurora A interaction (Homo sapiens, UniProt O14965); assay: Immunoprecipitation of c-MYC and immunoblotting for Aurora A; type: cell-based; conditions: RKO colon cancer cell line
T1 construct: endogenous in cells; host or cells: RKO colon cancer cell line
T1 sequence (O14965 whole entry): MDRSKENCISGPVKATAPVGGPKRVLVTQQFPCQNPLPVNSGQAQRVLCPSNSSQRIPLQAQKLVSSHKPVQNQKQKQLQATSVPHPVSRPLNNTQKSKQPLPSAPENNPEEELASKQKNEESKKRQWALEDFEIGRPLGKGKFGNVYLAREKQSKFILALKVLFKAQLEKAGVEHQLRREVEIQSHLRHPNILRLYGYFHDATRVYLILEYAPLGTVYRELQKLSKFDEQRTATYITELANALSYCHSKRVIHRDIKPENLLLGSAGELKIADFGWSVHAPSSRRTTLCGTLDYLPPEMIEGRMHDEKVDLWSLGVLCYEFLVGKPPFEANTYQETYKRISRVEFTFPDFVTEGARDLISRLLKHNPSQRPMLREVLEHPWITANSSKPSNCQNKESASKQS

For `O=C(Nc1ccc(Nc2nccc(Nc3cc(C4CCCC4)[nH]n3)n2)cc1)Nc1cccc(C(F)(F)F)c1` [CD532, 1-(4-((4-((5-cyclopentyl-1H-pyrazol-3-yl)amino)pyrimidin-2-yl)amino)phenyl)-3-(3-(trifluoromethyl)phenyl)urea], the EC50 [1] was 1.33 µM, the “susceptibility of MYCN amplified vs non-amplified cell lines” value ([2]; Wilcoxon Rank Sum test) was “significantly more susceptible to CD532 than non-amplified lines” and the “EC50 values across the panel” value ([2]; most cell lines) was “nanomolar range”. It also gave an EC50 ([3]; Homo sapiens, LOX IMVI, read-out: CD532 EC50 (uM), LOXIMVI cell line, Skin) of 0.732 µM, an EC50 ([3]; read-out: CD532 EC50, LOXIMVI cell line, Skin) of 0.384 µM and an EC50 [4] of 2.33 µM. For the same molecule, the EC50 [5] was 10.1 µM, the EC50 [6] was 0.649 µM and the EC50 [7] was 0.412 µM. For the same molecule, the EC50 [8] was 1.51 µM, the cell cycle effect [9] was “potent loss of S-phase entry” and the EC50 [10] was 0.861 µM. The EC50 [11] was 0.543 µM, the EC50 [12] was 0.566 µM and the EC50 [13] was 1.24 µM. For the same molecule, the EC50 [14] was 0.323 µM, the EC50 [15] was 1.24 µM and the EC50 [16] was 0.753 µM. For the same molecule, the EC50 [17] was 1.32 µM, the EC50 [18] was 0.739 µM and the EC50 [19] was 1.19 µM. For the same molecule, the EC50 [20] was 0.158 µM, the EC50 [21] was 0.27 µM and the EC50 [22] was 0.462 µM. For the same molecule, the EC50 [23] was 0.421 µM, the c-MYC protein ([24]; RKO colon cancer cell line) was “effects loss of c-MYC protein” and the c-MYC protein ([24]; SUM142 breast cancer cell line) was “effects loss of c-MYC protein”. For the same molecule, the c-Myc protein ([24]; SUM149 (ER−/PR−) breast cancer cell line) was “loss of c-Myc”, the c-MYC protein ([24]; c-MYC-translocated ML-60 leukemia cell line) was “effects loss of c-MYC protein” and the EC50 [25] was 9.81 µM. For the same molecule, the EC50 [26] was 0.705 µM and the “c-MYC association with Aurora A” value [27] was “reduces this interaction”.
